Key:
[1] = Induction of cardiogenesis in human embryonic stem cells assessed as as enrichment of pacemaker like cardiomyocytes (reference value: 21%); format: functional, Embryonic stem cell
Danio rerio = assay: Inhibition of BMPR in zebra fish embryo assessed as dorsalization administered 3 hr post fertilization
[2] = target: Vascular endothelial growth factor receptor 2 (Homo sapiens, UniProt P35968); assay: Inhibition of human KDR in presence of (33P)gamma ATP
TGF-beta receptor type-1 = target: T1, TGF-beta receptor type-1 (Homo sapiens, UniProt P36897); assay: Inhibition of human ALK5 in presence of (33P)gamma ATP
T1 sequence (P36897 whole entry): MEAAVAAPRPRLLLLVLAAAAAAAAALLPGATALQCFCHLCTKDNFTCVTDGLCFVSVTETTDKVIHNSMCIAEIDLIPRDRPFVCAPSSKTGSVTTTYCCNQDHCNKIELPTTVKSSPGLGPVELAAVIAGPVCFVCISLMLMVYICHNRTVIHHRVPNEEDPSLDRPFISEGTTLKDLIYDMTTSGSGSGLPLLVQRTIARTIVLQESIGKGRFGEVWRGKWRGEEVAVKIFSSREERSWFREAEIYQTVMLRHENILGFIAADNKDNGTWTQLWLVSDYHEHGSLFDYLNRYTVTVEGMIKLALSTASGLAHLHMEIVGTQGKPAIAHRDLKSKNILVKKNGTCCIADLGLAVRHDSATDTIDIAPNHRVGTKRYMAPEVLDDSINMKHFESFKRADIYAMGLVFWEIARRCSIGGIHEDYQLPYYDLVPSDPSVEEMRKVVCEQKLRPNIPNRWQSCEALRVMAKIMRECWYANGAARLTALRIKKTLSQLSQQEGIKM

[3] = Induction of cardiogenesis in mouse CGR8 cells assessed as cardiac troponin positive cells measured on day 5 +10+2 EB-derived cells by flow cytometry analysis (reference value: 11%); format: functional
[4] = Induction of cardiogenesis in mouse embryonic stem cells assessed as enrichment of pacemaker like cardiomyocytes by patch clamp technique (reference value: 7%); format: functional, Embryonic stem cell
[5] = Induction of cardiogenesis in mouse embryonic stem cells assessed as enrichment of atrial like cardiomyocytes by patch clamp technique (reference value: 7%); format: functional, Embryonic stem cell
[6] = Suppression of cardiogenesis in mouse embryonic stem cells assessed as ventricular like cardiomyocytes by patch clamp technique (reference value: 86%); format: functional, Embryonic stem cell
Activin receptor type-1 = target: T2, Activin receptor type-1 (Homo sapiens, UniProt Q04771); assay: Inhibition of human ALK2 in presence of (33P)gamma ATP
T2 sequence (Q04771 whole entry): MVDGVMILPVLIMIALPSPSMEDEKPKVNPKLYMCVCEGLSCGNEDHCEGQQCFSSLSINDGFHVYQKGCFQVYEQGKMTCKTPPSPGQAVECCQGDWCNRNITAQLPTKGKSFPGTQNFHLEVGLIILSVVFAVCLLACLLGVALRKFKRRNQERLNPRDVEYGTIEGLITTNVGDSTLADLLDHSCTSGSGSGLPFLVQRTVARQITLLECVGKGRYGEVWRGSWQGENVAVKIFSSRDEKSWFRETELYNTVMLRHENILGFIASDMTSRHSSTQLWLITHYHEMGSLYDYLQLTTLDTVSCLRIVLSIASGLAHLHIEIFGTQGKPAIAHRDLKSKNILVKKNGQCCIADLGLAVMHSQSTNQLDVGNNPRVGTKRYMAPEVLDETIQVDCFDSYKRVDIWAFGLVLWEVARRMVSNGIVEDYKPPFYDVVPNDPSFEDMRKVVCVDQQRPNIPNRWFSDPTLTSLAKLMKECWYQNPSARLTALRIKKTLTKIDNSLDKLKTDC

[7] = Induction of cardiogenesis in human embryonic stem cells by DAPI staining based immunofluorescence method relative to control; format: functional, Embryonic stem cell

Sequence of Vascular endothelial growth factor receptor 2 (P35968 whole entry): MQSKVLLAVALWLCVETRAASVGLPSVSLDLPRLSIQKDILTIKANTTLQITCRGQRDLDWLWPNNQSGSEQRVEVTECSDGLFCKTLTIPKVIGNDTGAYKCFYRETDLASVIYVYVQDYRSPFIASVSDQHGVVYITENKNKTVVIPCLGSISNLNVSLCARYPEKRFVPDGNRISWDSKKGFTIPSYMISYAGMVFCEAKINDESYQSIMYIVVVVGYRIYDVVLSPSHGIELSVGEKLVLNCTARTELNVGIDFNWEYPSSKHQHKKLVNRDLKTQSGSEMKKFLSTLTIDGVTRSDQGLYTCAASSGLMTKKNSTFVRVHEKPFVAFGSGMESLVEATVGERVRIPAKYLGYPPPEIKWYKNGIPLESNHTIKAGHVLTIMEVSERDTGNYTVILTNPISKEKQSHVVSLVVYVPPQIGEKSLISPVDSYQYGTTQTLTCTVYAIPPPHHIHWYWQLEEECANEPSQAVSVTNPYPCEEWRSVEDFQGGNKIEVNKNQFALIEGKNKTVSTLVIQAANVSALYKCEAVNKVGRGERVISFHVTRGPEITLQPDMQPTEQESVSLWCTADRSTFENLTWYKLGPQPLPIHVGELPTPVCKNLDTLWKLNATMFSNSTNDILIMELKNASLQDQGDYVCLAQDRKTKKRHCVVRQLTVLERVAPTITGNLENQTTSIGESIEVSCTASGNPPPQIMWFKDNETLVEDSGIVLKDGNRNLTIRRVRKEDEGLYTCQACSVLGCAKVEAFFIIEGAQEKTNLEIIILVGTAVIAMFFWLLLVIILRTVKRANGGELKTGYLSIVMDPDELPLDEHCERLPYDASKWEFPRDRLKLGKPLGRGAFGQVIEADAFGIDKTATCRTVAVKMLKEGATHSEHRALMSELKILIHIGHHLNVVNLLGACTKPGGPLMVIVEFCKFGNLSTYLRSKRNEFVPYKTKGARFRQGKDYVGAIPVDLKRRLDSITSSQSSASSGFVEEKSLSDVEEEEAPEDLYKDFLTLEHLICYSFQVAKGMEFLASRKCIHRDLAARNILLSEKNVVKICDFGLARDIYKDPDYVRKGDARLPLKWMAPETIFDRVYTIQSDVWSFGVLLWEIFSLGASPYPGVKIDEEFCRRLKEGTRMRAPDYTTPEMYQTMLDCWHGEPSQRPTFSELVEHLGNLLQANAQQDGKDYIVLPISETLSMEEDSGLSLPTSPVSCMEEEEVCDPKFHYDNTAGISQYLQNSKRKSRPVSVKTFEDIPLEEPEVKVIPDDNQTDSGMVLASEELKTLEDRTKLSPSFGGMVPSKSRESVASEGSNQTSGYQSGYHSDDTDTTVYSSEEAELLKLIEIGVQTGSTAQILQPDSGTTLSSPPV

COc1cc2ncnc(Nc3cccc(Cl)c3)c2cc1OC [TYRPHOSTIN AG-1478]
Activity [1]: 52%

c1cc(-c2cnn3cc(-c4ccc(OCCN5CCCCC5)cc4)cnc23)ccn1 [DORSOMORPHIN]
EC100 (Danio rerio): 2.5 µM
IC50 [2]: 220 nM
IC50 (TGF-beta receptor type-1): 10000 nM

c1ccc2c(-c3cnn4cc(-c5ccc(N6CCNCC6)cc5)cnc34)ccnc2c1
EC100 (Danio rerio): 3 µM

CCn1c(=O)[nH]c2ccccc21
Activity [3]: 59%
Activity [4]: 58%
Activity [5]: 21%
Activity [6]: 21%

CC(C)Oc1ccc(-c2cnc3c(-c4ccnc5ccccc45)cnn3c2)cc1
EC100 (Danio rerio): 0.2 µM
IC50 (Activin receptor type-1): 100 nM

C[S+]([O-])c1ccc(-c2nc(-c3ccc(F)cc3)c(-c3ccncc3)[nH]2)cc1 (configuration not stated) [SB-203580]
fold change (FC) [7]: 2.5

Source: ChEMBL document CHEMBL3745593, “Medicinal Chemistry Approaches to Heart Regeneration” (J Med Chem, 2015)
